This note sets out measurements from ChEMBL document CHEMBL4028802, “DILIrank: the largest reference drug list ranked by the risk for developing drug-induced liver injury in humans” (Drug Discov Today, 2016).

The species named for data set [1] is Homo sapiens. In words: Liver toxicity in human assessed as induction of drug-induced liver injury by measuring severity class index.
The species named for data set [2] is Homo sapiens. In words: Liver toxicity in human assessed as induction of drug-induced liver injury by measuring verified drug-induced liver injury concern status.
Throughout, for DILI severity class: key of the grades not given here.

In the case of `CN(C)[C@@H]1C(O)=C(C(N)=O)C(=O)[C@@]2(O)C(O)=C3C(=O)c4c(O)cccc4[C@@](C)(O)[C@H]3[C@H](O)[C@@H]12` [OXYTETRACYCLINE], the DILI_severity_class in the data set listed under Homo sapiens [1] is 2. Moreover, the DILI_Concern entry in the data set listed under Homo sapiens [2] is reported as “Ambiguous-Dili-Concern”.
`CC[C@H](C)[C@@H]1NC(=O)[C@H](Cc2ccc(O)cc2)NC(=O)[C@@H](N)CSSC[C@@H](C(=O)N2CCC[C@H]2C(=O)N[C@@H](CC(C)C)C(=O)NCC(N)=O)NC(=O)[C@H](CC(N)=O)NC(=O)[C@H](CCC(N)=O)NC1=O` [OXYTOCIN]: in the data set filed under Homo sapiens [1], the DILI_severity_class came out at 0. For the same compound, the DILI_Concern result in the data set listed under Homo sapiens [2] was “No-Dili-Concern”.
Regarding `CC(=O)O[C@H]1C(=O)[C@@]2(C)[C@H]([C@H](OC(=O)c3ccccc3)[C@]3(O)C[C@H](OC(=O)[C@H](O)[C@@H](NC(=O)c4ccccc4)c4ccccc4)C(C)=C1C3(C)C)[C@]1(OC(C)=O)CO[C@@H]1C[C@@H]2O` [PACLITAXEL], the DILI_severity_class in the data set filed under Homo sapiens [1] was determined as 4. In the data set listed under Homo sapiens [2], the DILI_Concern entry is given as “Less-Dili-Concern”.
The like results for `CONC(=N)c1ccc(-c2ccc(-c3ccc(C(=N)NOC)cc3)o2)cc1` [PAFURAMIDINE] were, in that order, 8 and “Most-Dili-Concern”.
The corresponding values for `Cc1nc2n(c(=O)c1CCN1CCC(c3noc4cc(F)ccc34)CC1)CCCC2O` (stereo not given) [PALIPERIDONE] are 0 and “No-Dili-Concern”.
The like results for `O=C1c2cccc3c2[C@H](CCC3)CN1[C@@H]1CN2CCC1CC2` [PALONOSETRON] were, in that order, 4 and “Ambiguous-Dili-Concern”.
`CC(C)(N)CO.Cn1c(=O)c2[nH]c(Br)nc2n(C)c1=O` [PAMABROM]: the DILI_severity_class in the data set listed under Homo sapiens [1] came out at 0. The DILI_Concern result in the data set listed under Homo sapiens [2] is “No-Dili-Concern”.
Turning to `NCCC(O)(P(=O)(O)O)P(=O)(O)O` [PAMIDRONIC ACID], the DILI_severity_class in the data set listed under Homo sapiens [1] was found to be 3. In the data set filed under Homo sapiens [2], the DILI_Concern result is given as “Ambiguous-Dili-Concern”.
The corresponding values for `CC(=O)O[C@H]1C[C@@H]2CC[C@@H]3[C@H](CC[C@@]4(C)[C@H]3C[C@H]([N+]3(C)CCCCC3)[C@@H]4OC(C)=O)[C@@]2(C)C[C@@H]1[N+]1(C)CCCCC1` [PANCURONIUM] are 0 and “No-Dili-Concern”.
The like results for `COc1ccnc(C[S+]([O-])c2nc3ccc(OC(F)F)cc3[nH]2)c1OC` (stereo not given) [PANTOPRAZOLE] were, in that order, 3 and “Less-Dili-Concern”.
The corresponding values for `COc1ccc(Cc2nccc3cc(OC)c(OC)cc23)cc1OC` [PAPAVERINE] are 5 and “Most-Dili-Concern”.
As for `C[C@H](/C=C/[C@H](C)C(C)(C)O)[C@H]1CC[C@H]2/C(=C/C=C3C[C@@H](O)C[C@H](O)C3)CCC[C@]12C` [PARICALCITOL], the DILI_severity_class in the data set listed under Homo sapiens [1] is on record as 3. Also, the DILI_Concern entry in the data set listed under Homo sapiens [2] is reported as “Ambiguous-Dili-Concern”.
The like results for `NC[C@@H]1O[C@H](O[C@H]2[C@@H](O)[C@H](O[C@@H]3[C@@H](O)[C@H](N)C[C@H](N)[C@H]3O[C@H]3O[C@H](CO)[C@@H](O)[C@H](O)[C@H]3N)O[C@@H]2CO)[C@H](N)[C@@H](O)[C@@H]1O` [PAROMOMYCIN] were, in that order, 0 and “No-Dili-Concern”.
The corresponding values for `Fc1ccc([C@@H]2CCNC[C@H]2COc2ccc3c(c2)OCO3)cc1` [PAROXETINE] are 8 and “Less-Dili-Concern”.
The corresponding values for `Nc1nc2[nH]cc(CCc3ccc(C(=O)N[C@@H](CCC(=O)O)C(=O)O)cc3)c2c(=O)[nH]1` [PEMETREXED] are 3 and “Ambiguous-Dili-Concern”.
In the case of `NC1=NC(=O)C(c2ccccc2)O1` (stereo not given) [PEMOLINE], in the data set listed under Homo sapiens [1], the DILI_severity_class is 8. In the data set listed under Homo sapiens [2], the DILI_Concern entry is “Most-Dili-Concern”.
For the compound `CC(C)(C)NC[C@H](O)COc1ccccc1C1CCCC1` [PENBUTOLOL], in the data set listed under Homo sapiens [1], the DILI_severity_class is on record as 0. For the same compound, in the data set listed under Homo sapiens [2], the DILI_Concern result is recorded as “No-Dili-Concern”.
For `CC(C)(S)[C@@H](N)C(=O)O` [PENICILLAMINE], the DILI_severity_class in the data set filed under Homo sapiens [1] was found to be 2. Besides, in the data set filed under Homo sapiens [2], the DILI_Concern entry is “Less-Dili-Concern”.
The like results for `CC1(C)S[C@@H]2[C@H](NC(=O)Cc3ccccc3)C(=O)N2[C@H]1C(=O)O` [PENICILLIN G] were, in that order, 3 and “Less-Dili-Concern”.
The like results for `CC1(C)S[C@@H]2[C@H](NC(=O)COc3ccccc3)C(=O)N2[C@H]1C(=O)O` [PENICILLIN V] were, in that order, 0 and “No-Dili-Concern”.
The corresponding values for `CSCC[C@H](NC(=O)[C@H](Cc1c[nH]c2ccccc12)NC(=O)CCNC(=O)OC(C)(C)C)C(=O)N[C@@H](CC(=O)O)C(=O)N[C@@H](Cc1ccccc1)C(N)=O` [PENTAGASTRIN] are 0 and “No-Dili-Concern”.
In the case of `N=C(N)c1ccc(OCCCCCOc2ccc(C(=N)N)cc2)cc1` [PENTAMIDINE], in the data set listed under Homo sapiens [1], the DILI_severity_class is on record as 3. Also, the DILI_Concern entry in the data set filed under Homo sapiens [2] is reported as “Less-Dili-Concern”.
The corresponding values for `O=C(O)CN(CCN(CC(=O)O)CC(=O)O)CCN(CC(=O)O)CC(=O)O` [PENTETIC ACID] are 0 and “No-Dili-Concern”.
The like results for `CCCC(C)C1(CC)C(=O)NC(=O)NC1=O` (stereo not given) [PENTOBARBITAL] were, in that order, 3 and “Ambiguous-Dili-Concern”.
The like results for `OC[C@H]1O[C@@H](n2cnc3c2NC=NC[C@H]3O)C[C@@H]1O` [PENTOSTATIN] were, in that order, 3 and “Most-Dili-Concern”.
For the compound `CC(=O)CCCCn1c(=O)c2c(ncn2C)n(C)c1=O` [PENTOXIFYLLINE], in the data set filed under Homo sapiens [1], the DILI_severity_class was 5. Moreover, the DILI_Concern result in the data set filed under Homo sapiens [2] is “Ambiguous-Dili-Concern”.
The corresponding values for `CCCN1C[C@H](CSC)C[C@@H]2c3cccc4[nH]cc(c34)C[C@H]21` [PERGOLIDE] are 3 and “Ambiguous-Dili-Concern”.
The corresponding values for `C1CCC(C(CC2CCCCN2)C2CCCCC2)CC1` (stereo not given) [PERHEXILINE] are 8 and “Most-Dili-Concern”.
The corresponding values for `CCC[C@H](N[C@@H](C)C(=O)N1[C@H](C(=O)O)C[C@@H]2CCCC[C@@H]21)C(=O)OCC` [PERINDOPRIL] are 3 and “Ambiguous-Dili-Concern”.
For the compound `OCCN1CCN(CCCN2c3ccccc3Sc3ccc(Cl)cc32)CC1` [PERPHENAZINE], the DILI_severity_class in the data set listed under Homo sapiens [1] is reported as 3. Also, in the data set listed under Homo sapiens [2], the DILI_Concern result is “Less-Dili-Concern”.
The like results for `C[C@H]1[C@H](c2ccccc2)OCCN1C` [PHENDIMETRAZINE] were, in that order, 0 and “No-Dili-Concern”.
The corresponding values for `NNCCc1ccccc1` [PHENELZINE] are 3 and “Less-Dili-Concern”.
Regarding `CCC1(c2ccccc2)C(=O)NC(=O)NC1=O` [PHENOBARBITAL], the DILI_severity_class in the data set filed under Homo sapiens [1] is 3. Besides, the DILI_Concern result in the data set listed under Homo sapiens [2] was “Less-Dili-Concern”.
The corresponding values for `CC(COc1ccccc1)N(CCCl)Cc1ccccc1` (stereo not given) [PHENOXYBENZAMINE] are 0 and “No-Dili-Concern”.
The corresponding values for `CC(COc1ccccc1)NN` (stereo not given) [PHENOXYPROPAZINE] are 8 and “Most-Dili-Concern”.
